Reference: US6562859B1, “Ureido derivatives of poly-4-amino-2-carboxy-1-methyl pyrrole compounds for inhibition of inflammation” (The United States of America as represented by the …, priority 1997, dated 2003)

B1: RANTES: β-chemokine used as chemoattractant stimulus (protein, UniProt P13501 24-91, looked up)
C-C motif chemokine 5: SPYSSDTTPCCFAYIARPLPRAHIKEYFYTSGKCSNPAVVFVTRKNRQVCANPEKKWVREYINSLEMS

Key:
CXCR4 chemokine receptor = molecular target: T1, CXCR4 chemokine receptor (Homo sapiens, UniProt P61073); test: Competition with 44716.111 mAb binding to CXCR4 on human monocytes (FACS); settings: human monocytes pre-incubated 15 min at 4° C. with 125 nM SDF-1α or 200 μM NSC 651016
T1 construct: Human monocytes, which express the CXCR4 chemokine receptor; endogenous in cells; host or cells: human monocytes
T1 sequence (P61073 whole entry): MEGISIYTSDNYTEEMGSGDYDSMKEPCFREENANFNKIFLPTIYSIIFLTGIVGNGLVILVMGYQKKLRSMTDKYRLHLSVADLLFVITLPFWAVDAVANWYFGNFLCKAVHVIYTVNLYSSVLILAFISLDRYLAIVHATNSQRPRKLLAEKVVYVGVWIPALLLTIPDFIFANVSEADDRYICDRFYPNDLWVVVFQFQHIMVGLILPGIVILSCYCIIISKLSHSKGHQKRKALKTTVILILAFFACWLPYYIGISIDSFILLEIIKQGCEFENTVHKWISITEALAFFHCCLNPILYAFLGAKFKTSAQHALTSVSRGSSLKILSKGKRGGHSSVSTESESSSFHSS
Procedure: Competition assays were performed with the 44716.111 mouse monoclonal antibody (mAb), which binds to the extracellular domain of the CXCR4 chemokine receptor. Human monocytes, which express the CXCR4 chemokine receptor, were pre-incubated with either 125 nM of SDF-1α or 200 μM NSC 651016 for 15 min at 4° C. Control monocyte cells were placed at 4° C. for 15 min. The cells were then incubated with the 44716.111 mAb for an additional 30 min. The presence of the 44716.111 mAb was detected by incubating the cells with FITC-conjugated anti-murine antibody and subjecting the cells to FACS Analysis.

Murine spleen cells = test: Chemotaxis of non-adherent murine spleen cells in vitro; type: cell-based; settings: 10 ng/ml RANTES alone; media alone = 1
Procedure: Murine spleen cells were “panned” on plastic to remove the adherent cells. The recovered cells were incubated for 30 minutes at 37° C. with one of the following: NSC 651015, NSC 651016, NSC 662162, and NSC 680651. […] In assays similarly performed using either the MIP-1α or the SDF-1α chemokine rather than RANTES, chemotactic inhibition was also observed in the presence of formula I compounds.

Molecule | 44716.111 antibody binding to the CXCR4 receptor (CXCR4 chemokine receptor) | chemotactic index (Murine spleen cells)
SDF-1α | decrease in 44716.111 antibody binding | 
B1 |  | 2.3
